Measurements from paper PMC7293010, “DXO/Rai1 enzymes remove 5′-end FAD and dephospho-CoA caps on RNAs” (Nucleic Acids Research, 2020).

Assays:
[1] = target: T1, mDXO (Mus musculus, UniProt O70348, E192S/E234Q/E253Q); assay: X-ray crystal structure, crystal soaked in […] CaCl2 for […] h, then in […] ligand for […] h; type: binding; conditions: 1.6 Å; active site; pH 6.8, 20°C
T1 construct: gene Dxo; full-length, His tag, pET28a, E. coli BL21 (DE3) Rosetta, Ni-NTA and gel filtration; residues 1-26 with His tag and 385-397 not seen in density
T1 sequence (O70348 1-397 E192S/E234Q/E253Q): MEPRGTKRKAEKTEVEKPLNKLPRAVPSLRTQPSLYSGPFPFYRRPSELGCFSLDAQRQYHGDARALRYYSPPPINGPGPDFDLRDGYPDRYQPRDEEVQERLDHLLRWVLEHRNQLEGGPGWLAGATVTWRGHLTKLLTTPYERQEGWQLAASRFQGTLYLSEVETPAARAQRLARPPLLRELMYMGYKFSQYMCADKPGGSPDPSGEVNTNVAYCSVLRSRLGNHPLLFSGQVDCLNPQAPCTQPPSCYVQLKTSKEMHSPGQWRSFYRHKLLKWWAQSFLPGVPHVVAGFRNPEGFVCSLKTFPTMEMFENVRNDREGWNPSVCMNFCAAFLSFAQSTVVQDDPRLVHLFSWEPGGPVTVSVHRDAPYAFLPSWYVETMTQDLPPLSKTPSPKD

[2] = target: T2, SpRai1 (Schizosaccharomyces pombe, UniProt O13836); assay: X-ray crystal structure, crystal soaked […] h in […] ligand; type: binding; conditions: 1.9 Å; two magnesium ions observed; active site
T2 construct: gene din1; full-length, pET28a (for crystallization), E. coli BL21 (DE3) Rosetta, Ni-NTA and gel filtration
T2 sequence (O13836 1-352): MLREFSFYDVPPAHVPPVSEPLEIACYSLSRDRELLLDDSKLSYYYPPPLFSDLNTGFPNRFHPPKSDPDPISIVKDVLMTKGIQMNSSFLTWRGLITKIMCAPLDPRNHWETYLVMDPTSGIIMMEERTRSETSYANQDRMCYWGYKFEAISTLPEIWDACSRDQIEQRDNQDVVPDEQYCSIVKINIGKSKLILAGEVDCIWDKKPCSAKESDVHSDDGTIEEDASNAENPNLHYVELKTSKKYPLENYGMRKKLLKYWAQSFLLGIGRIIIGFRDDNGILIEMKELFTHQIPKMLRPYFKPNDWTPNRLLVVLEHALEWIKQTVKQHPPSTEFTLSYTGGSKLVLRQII

Row | SMILES | X-ray crystal structure, crystal soaked in 20 mM CaCl2 for 1 h, then in 10 mM li [1] | X-ray crystal structure, crystal soaked 1 h in 10 mM ligand [2]
1 | CC(C)(COP(=O)(O)OP(=O)(O)OC[C@H]1O[C@@H](n2cnc3c(N)ncnc32)[C@H](O)[C@@H]1OP(=O)(O)O)[C@@H](O)C(=O)NCCC(=O)NCCS [CoA] | crystal structure of the E192S/E234Q/E253Q mutant of mDXO in complex with CoA | –
2 | Cc1cc2nc3c(=O)[nH]c(=O)nc-3n(C[C@H](O)[C@H](O)[C@H](O)COP(=O)(O)OP(=O)(O)OC[C@H]3O[C@@H](n4cnc5c(N)ncnc54)[C@H](O)[C@@H]3OP(=O)(O)O)c2cc1C [3′-FADP] | – | good-quality electron density for FADP in complex with wild-type SpRai1
